Test results taken from US20040009485A1, “Cellular arrays for the identification of altered gene expression” (priority 2002, published 2004).
Where “and” joins values, the source holds several entries; their conditions need not be identical. Equal entries are not always repeated.

How the values were obtained:
[1] = tested on: uhpT-luxCDABE gene fusion (E. coli strain DPD3228); test: Verification of uhpT-lux upregulation by limonene; type: cell-based; settings: late response, maximal at highest conc, also detected at 40% or 20% of saturating amounts (FIG. 10)
Method: E. coli strain DPD3228 is identical to lux-a.pk034.b9 the strain containing the uhpT-luxCDABE gene fusion. This strain was grown overnight at 37° C. in LB medium containing 100 μg/ml ampicillin and diluted the following day into LB medium and grown to log phase at 37° C. 20 μl aliquots of this culture were added to 80 μl of LB medium saturated with limonene, to 80 μl of a series of two fold dilutions into LB medium of LB saturated with limonene, and to 80 μl of LB medium. Light production was measured in a Luminoskan Ascent (Labsystems) microplate luminometer at 37° C. […] Similar to the initial LuxArray observations, a late response to the presence of limonene was observed. This response was maximal at the highest concentration of limonene tested, but was also detected when limonene was present at 40% or 20% of saturating amounts in LB medium.

[2] = tested on: Luxarray 0.5 reporter clones; test: High density Luxarray 0.5 nalidixic acid perturbation (cooled CCD camera); type: cell-based, E. coli; settings: 5 μg/ml, 0-8 hr
Method: The clones of Luxarray 0.5 were used to print arrays as described above at a 4×4 density. That is to say that each single spot as in FIG. 3 was replicated 16× in a 4×4 subarray. […] Arrays were printed in triplicate from fresh overnight cultures onto membranes on plates containing LB media. […] Cultures were replaced at 37° C. to continue growing. Images were collected for each array every two hours from 0-8 hr after relocation using a cooled CCD camera (FluorChem 8000: f0.85 lens, 2 min exposure. AlphaInnotech). Spot intensity was determined using ArrayVision™ (Imaging Research, Toronto, Canada).
In contrast, light production from the strain carrying the lac promoter fusion as well as several strains carrying other promoter fusions was decreased.

[3] = tested on: LuxArray 1.0 luxCDABE gene fusions; test: LuxArray 1.0 solid phase identification of nalidixic acid responsive gene fusions; type: cell-based, E. coli; settings: 5 μg/ml, duplicate spots; for Solid expt NA/LB, t = 2 hr / Solid expt NA/LB, t = 4 hr / Solid expt NA/LB, t = 6 hr / Solid expt NA/LB, t = 8 hr: normalized; for upregulation on LuxArray 1.0: 4 hours of nalidixic acid treatment
Source text: The genome-registered Lux-A luxCDABE gene fusion collection. (described in Example 1) provided a list of 4988 plasmid-borne gene fusions, each with boundary information relative to the E. coli genome and the orientation relative to the lux operon. An operably linked or a functional construct was defined as one consisting of a genomic fragment encompassing a promoter adjacent to the promoterless lux operon in an orientation that causes transcription initiated at the promoter to proceed into and through the lux operon. Therefore, to identify the functional subset of the collection, criteria were computationally applied to filter the list of clones first for functionality and second for redundancy. A list of definitions of documented and predicted operons (Thieffry et al. (1998) Bioinformatics 14:391-400) was used to define genomic coordinates of the operons as the translational start codon position of the first open reading frame (ORF) in the operon and the translational stop codon position of the last ORF in the operon. Additional information included the strand on which the operon is coded (direction of transcription), and gene names (common or “b” number). The lux gene fusions were filtered computationally using the following assumptions; (i) a functional transcriptional fusion would result from any genomic fragment starting greater than 50 base pairs upstream of the start codon of the first ORF and ending anywhere between the start codon of the first ORF in the operon and the stop codon of the last ORF in the operon, thereby eliminating the occurrence of a transcriptional stop signal in the construct between the promoter and the lux operon; and (ii) the promoter contained in the genomic fragment must face in the correct orientation relative to the lux operon (pictorially represented in FIG. 6). Finally, in cases when more then one clone fit the criteria for a single operon, only the one construct containing the genomic fragment representing the greatest amount of upstream sequence was retained thereby eliminating redundancy. The PERL code used and the resulting list of 689 selected gene fusions are found in Scheme 1 and Table 18 (following Example 7). These fusions represent 27% of the 2584 known and predicted transcriptional units in the E. coli genome. Individual cultures of strains containing the identified gene fusions were rearranged from the ninety original culture plates to create a set of sixteen 96-well microplates containing all the identified fusions, duplicated with side by side symmetry, including appropriately placed controls. These 16 plates represent were used to generate the cellular arrays for use in subsequent analyses.
The E. coli strains were grown overnight at 37° C. in […]) LB medium supplemented with 100 μg/ml ampicillin in a set of sixteen 96-well dishes. These cultures were designated “printing plates” and were used as the cell source to manufacture the arrays. Porous membranes (Biodyne B, Nunc) were sterilized with UV illumination for 10 min then placed in contact with pre-warmed of solid LB growth media in a culture dish (OmniTray, Nunc). Printing of 4×4 subarrays was accomplished using a BioMek 2000 (Beckman Coulter) equipped with a High Density Replication Tool (HDRT). […] After sterilization, the pins are air-dried prior to the next transfer. The E. coli strains in the LuxArray were printed onto an approximately 8×12 cm membrane in two sets of triplicates.
Arrays were printed from fresh overnight cultures onto membranes on plates containing LB media. Alter 6 hr of growth at 37° C. membranes were moved to pre-warmed plates containing either LB media or LB media supplemented with 5 μg/ml nalidixic acid then replaced at 37° C. to continue growing. Images were collected for each array every two hours from 0-8 hr after relocation using a cooled CCD camera (FluorChem 8000: f0.85 lens, 2 min exposure, AlphaInnotech). […]

[4] = 1pxA 1pxB rnhB dnaE fusion (lux-a.pk061.c3), listed as NA
[5] = b1728 fusion (lux-a.pk033.c5), listed as NA
[6] = b1936 fusion (lux-a.pk0019.g1), listed as NA
[7] = dinG ybiB fusion (lux-a.pk0024.f5), listed as NA
[8] = dinP fusion (lux-a.pk055.a3), listed as NA
[9] = fusion (lux-a.pk0015.d6), listed as NA
[10] = oraA fusion (lux-a.pk058.f5), listed as NA
[11] = uvrA fusion (lux-a.pk0001.b6), listed as NA
[12] = yaaF fusion (lux-a.pk031.e7), listed as NA
[13] = yfhJ fdx hscA yfhE fusion (lux-a.pk0019.g2), listed as NA

C=C(C)[C@H]1CC=C(C)CC1 [limonene]
upregulation of bioluminescence of uhpT-luxCDABE strain [1]: upregulation of bioluminescence from this strain by limonene was confirmed

CCn1cc(C(=O)O)c(=O)c2ccc(C)nc21 [Nalidixic acid, nalidixic acid]
reporter expression, high density array ([2]; five documented DNA damage-responsive reporter constructs): upregulation of expression
light production, high density array ([2]; lac promoter fusion and several other promoter fusions): decreased
Solid expt NA/LB, t = 2 hr [3, 4]: 3.5 and 2.7
Solid expt NA/LB, t = 4 hr [3, 4]: 3.1 and 3.5
Solid expt NA/LB, t = 6 hr [3, 4]: 2.8 and 3.0
Solid expt NA/LB, t = 8 hr [3, 4]: 1.7 and 1.9
Solid expt NA/LB, t = 2 hr [3, 5]: 3.7 and 2.1
Solid expt NA/LB, t = 4 hr [3, 5]: 4.3 and 3.1
Solid expt NA/LB, t = 6 hr [3, 5]: 3.2 and 3.3
Solid expt NA/LB, t = 8 hr [3, 5]: 2.6 and 2.5
Solid expt NA/LB, t = 2 hr [3, 6]: 2.5 and 4.4
Solid expt NA/LB, t = 4 hr [3, 6]: 7.7 and 8.2
Solid expt NA/LB, t = 6 hr [3, 6]: 9.7 and 15.5
Solid expt NA/LB, t = 8 hr [3, 6]: 7.1 and 10.2
Solid expt NA/LB, t = 2 hr [3, 7]: 2.5 and 3.4
Solid expt NA/LB, t = 4 hr [3, 7]: 3.7 and 4.2
Solid expt NA/LB, t = 6 hr [3, 7]: 3.5 and 3.1
Solid expt NA/LB, t = 8 hr [3, 7]: 2.9 and 2.6
Solid expt NA/LB, t = 2 hr [3, 8]: 3.1 and 5.5
Solid expt NA/LB, t = 6 hr [3, 8]: 4.2 and 8.1
Solid expt NA/LB, t = 4 hr ([3]; frvR frvX frvB frvA fusion (lux-a.pk046.e6)): 2.3
Solid expt NA/LB, t = 2 hr ([3]; frvR frvX frvB frvA fusion (lux-a.pk046.e6), listed as NA): 2.8 and 2.1
Solid expt NA/LB, t = 2 hr [3, 9]: 2.3 and 2.2
Solid expt NA/LB, t = 4 hr [3, 9]: 6.4 and 4.1
Solid expt NA/LB, t = 6 hr [3, 9]: 2.7 and 1.9
Solid expt NA/LB, t = 8 hr [3, 9]: 0.6 and 0.8
Solid expt NA/LB, t = 2 hr [3, 10]: 5.1 and 4.7
Solid expt NA/LB, t = 4 hr [3, 10]: 7.9 and 7.7
Solid expt NA/LB, t = 6 hr [3, 10]: 5.9 and 5.6
Solid expt NA/LB, t = 8 hr [3, 10]: 3.9 and 3.8
upregulation on LuxArray 1.0 ([3]; ruvA fusion): 1.7 fold and 2.1 fold
Solid expt NA/LB, t = 2 hr [3, 11]: 2.5 and 2.9
Solid expt NA/LB, t = 4 hr [3, 11]: 2.3 and 2.4
Solid expt NA/LB, t = 6 hr [3, 11]: 1.6 and 1.1
Solid expt NA/LB, t = 8 hr [3, 11]: 1.0 and 0.6
upregulation on LuxArray 1.0 ([3]; uvrD fusion): 1.6 fold and 1.9 fold
Solid expt NA/LB, t = 2 hr [3, 12]: 2.1 and 2.0
Solid expt NA/LB, t = 4 hr [3, 12]: 2.0 and 2.1
Solid expt NA/LB, t = 6 hr [3, 12]: 1.3 and 1.8
Solid expt NA/LB, t = 8 hr [3, 12]: 1.0 and 1.5
Solid expt NA/LB, t = 2 hr ([3]; yfhJ fdx hscA yfhE fusion (lux-a.pk0019.g2)): 2.1
Solid expt NA/LB, t = 4 hr [3, 13]: 2.0 and 2.2
Solid expt NA/LB, t = 6 hr [3, 13]: 1.7 and 1.5
Solid expt NA/LB, t = 8 hr [3, 13]: 1.4 and 1.3
Solid expt NA/LB, t = 4 hr ([3]; yigN fusion (lux-a.pk046.f11), listed as NA): 2.5 and 4.3
